According to ChEMBL document CHEMBL5465560, “Selectivity Literature for EUbOPEN Chemogenomic Library” (2024):
Changes are numbered by the printed parent chain.

Legend:
[1] = molecular target: T1, Dual specificity mitogen-activated protein kinase kinase 4 (Homo sapiens) (UniProt P45985); experiment: Selectivity interaction (ActivX KiNativ screen (kinase selectivity in THP-1 cell lysates)) EUB0000639a MAP2K4; format: subcellular; conditions: lysate, at 0.2 µM
T1 sequence (whole entry): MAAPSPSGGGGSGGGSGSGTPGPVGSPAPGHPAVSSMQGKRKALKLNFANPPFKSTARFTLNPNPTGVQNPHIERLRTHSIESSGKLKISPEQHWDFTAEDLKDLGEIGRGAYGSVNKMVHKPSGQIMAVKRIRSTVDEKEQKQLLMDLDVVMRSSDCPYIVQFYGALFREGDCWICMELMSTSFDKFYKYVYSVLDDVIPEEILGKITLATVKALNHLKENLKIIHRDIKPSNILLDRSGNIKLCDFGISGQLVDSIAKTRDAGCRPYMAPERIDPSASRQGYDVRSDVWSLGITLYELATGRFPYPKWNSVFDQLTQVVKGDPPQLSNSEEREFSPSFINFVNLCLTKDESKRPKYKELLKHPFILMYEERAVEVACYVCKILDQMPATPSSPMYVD

[2] = system: T2, Receptor-type tyrosine-protein kinase FLT3 (Homo sapiens), P36888 [N841I]; experiment: (§1) Selectivity interaction (KinomeScan (DiscoverX)) EUB0001049a FLT3; conditions: at 1 µM
T2 sequence (whole entry): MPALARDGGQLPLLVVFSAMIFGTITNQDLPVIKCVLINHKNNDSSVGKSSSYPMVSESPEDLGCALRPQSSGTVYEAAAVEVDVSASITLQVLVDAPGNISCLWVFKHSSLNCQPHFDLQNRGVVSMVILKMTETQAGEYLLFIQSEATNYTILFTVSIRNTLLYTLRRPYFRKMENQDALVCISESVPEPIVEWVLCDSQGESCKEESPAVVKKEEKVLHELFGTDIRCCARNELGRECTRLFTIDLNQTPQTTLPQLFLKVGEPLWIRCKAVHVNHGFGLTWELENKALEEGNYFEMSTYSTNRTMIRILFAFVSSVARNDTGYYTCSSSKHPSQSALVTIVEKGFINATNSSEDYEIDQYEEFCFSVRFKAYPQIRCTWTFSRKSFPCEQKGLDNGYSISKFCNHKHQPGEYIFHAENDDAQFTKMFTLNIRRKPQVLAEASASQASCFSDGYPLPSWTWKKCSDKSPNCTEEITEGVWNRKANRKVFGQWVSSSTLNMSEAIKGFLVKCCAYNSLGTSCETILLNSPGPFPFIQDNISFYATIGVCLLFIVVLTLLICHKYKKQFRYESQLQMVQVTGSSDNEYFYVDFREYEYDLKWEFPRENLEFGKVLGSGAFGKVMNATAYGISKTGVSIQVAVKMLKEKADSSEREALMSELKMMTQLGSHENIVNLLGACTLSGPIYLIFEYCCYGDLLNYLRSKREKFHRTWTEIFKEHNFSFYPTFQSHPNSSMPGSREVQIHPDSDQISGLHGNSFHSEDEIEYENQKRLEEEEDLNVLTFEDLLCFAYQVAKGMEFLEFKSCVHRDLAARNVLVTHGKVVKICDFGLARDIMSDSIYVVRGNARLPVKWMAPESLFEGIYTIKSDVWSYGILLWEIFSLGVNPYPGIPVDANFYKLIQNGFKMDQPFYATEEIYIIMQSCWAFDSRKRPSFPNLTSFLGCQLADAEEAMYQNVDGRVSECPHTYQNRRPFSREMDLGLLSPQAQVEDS

[3] = system: T3, Receptor-type tyrosine-protein kinase FLT3 (Homo sapiens), P36888 [K663Q]; experiment: as §1; conditions: at 1 µM
T3 sequence (whole entry): T2 sequence (whole entry) with K663Q, I841N

[4] = system: Receptor-type tyrosine-protein kinase FLT3 (Homo sapiens), P36888 [UNDEFINED MUTATION]; experiment: as §1; conditions: at 1 µM

| % of inhibition [1] [%] | Structure (SMILES) | % of control [2] [%] | % of control [3] [%] | % of control [4] [%] |
| --- | --- | --- | --- | --- |
| 15.8 | CC[C@@H]1[C@H](F)C(=O)N[C@@H]1COc1nccc2cc(C(N)=O)c(OC)cc12 [ZIMLOVISERTIB] |  |  |  |
|  | COc1cc(Nc2nc(C)cc(-c3cnn4nc(OC)ccc34)n2)cc(C(F)(F)F)c1 | 100 | 78 | 81 |
